Experimental data taken from EP4745135A1 (Gluetacs Therapeutics (Shanghai) Co., Ltd., priority 2023, dated 2025).

What was measured:
GSPT1 = experiment: Western blot, degradation of substrate protein in hPBMCs; assay type: cell-based, Human
CK1α = biological target: T1, CK1α (Homo sapiens, UniProt P48729+Q96SW2); experiment: as above; assay type: cell-based
T1 construct: effects of the compounds of the present disclosure on the expression of target proteins in cells; endogenous in cells; host or cells: human PBMCs (Milecell Biotechnologies)

IKZF2 = biological target: T2, IKZF2 (Homo sapiens, UniProt Q96SW2+Q9UKS7); experiment: as above; assay type: cell-based
T2 construct: effects of the compounds of the present disclosure on the expression of target proteins in cells; endogenous in cells; host or cells: human PBMCs (Milecell Biotechnologies)

WEE1 = biological target: T3, WEE1 (Homo sapiens, UniProt P30291+Q96SW2); experiment: as above; assay type: cell-based
T3 construct: effects of the compounds of the present disclosure on the expression of target proteins in cells; endogenous in cells; host or cells: human PBMCs (Milecell Biotechnologies)

IKZF1 = biological target: T4, IKZF1 (Homo sapiens, UniProt Q13422+Q96SW2); experiment: as above; assay type: cell-based
T4 construct: effects of the compounds of the present disclosure on the expression of target proteins in cells; endogenous in cells; host or cells: human PBMCs (Milecell Biotechnologies)

IKZF3 = biological target: T5, IKZF3 (Homo sapiens, UniProt Q96SW2+Q9UKT9); experiment: as above; assay type: cell-based
T5 construct: effects of the compounds of the present disclosure on the expression of target proteins in cells; endogenous in cells; host or cells: human PBMCs (Milecell Biotechnologies)

[1] = biological target: T6, human Cereblon WT GST-tagged protein (Homo sapiens, UniProt Q96SW2); experiment: CRBN-binding affinity, HTRF (CEREBLON BINDING kit); conditions: for inhibition at 0.5 µM: read-out: Inhibition Rate at 0.5 µM (%); for inhibition at 2 µM: read-out: Inhibition Rate at 2 µM (%); for IC50: CRBN binding, HTRF, 3 hours at room temperature, read-out: HTRF IC50
T6 construct: purchased CISBIO 64BDCRBNPEH

[2] = Western blot, 24 hours of compound treatment, compounds tested at 50 nM and 500 nM (concentration for the table not stated)
[3] = 24 hours treatment, compounds at 50 nM and 500 nM (concentration behind the class not stated)

T6 sequence (Q96SW2 whole entry): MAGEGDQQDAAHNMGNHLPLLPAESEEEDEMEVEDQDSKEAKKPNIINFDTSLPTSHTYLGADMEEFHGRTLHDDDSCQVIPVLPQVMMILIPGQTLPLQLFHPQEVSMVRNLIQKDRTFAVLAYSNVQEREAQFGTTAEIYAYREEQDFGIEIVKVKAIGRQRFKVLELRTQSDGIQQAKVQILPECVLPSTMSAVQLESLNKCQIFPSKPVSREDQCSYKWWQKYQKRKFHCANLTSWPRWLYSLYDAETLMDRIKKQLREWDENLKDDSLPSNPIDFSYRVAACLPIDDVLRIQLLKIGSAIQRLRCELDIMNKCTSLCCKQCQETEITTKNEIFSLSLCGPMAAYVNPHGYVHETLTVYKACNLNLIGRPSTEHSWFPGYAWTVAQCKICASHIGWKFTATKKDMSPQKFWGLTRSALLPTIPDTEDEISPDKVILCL
T5 sequence (Q9UKT9 whole entry): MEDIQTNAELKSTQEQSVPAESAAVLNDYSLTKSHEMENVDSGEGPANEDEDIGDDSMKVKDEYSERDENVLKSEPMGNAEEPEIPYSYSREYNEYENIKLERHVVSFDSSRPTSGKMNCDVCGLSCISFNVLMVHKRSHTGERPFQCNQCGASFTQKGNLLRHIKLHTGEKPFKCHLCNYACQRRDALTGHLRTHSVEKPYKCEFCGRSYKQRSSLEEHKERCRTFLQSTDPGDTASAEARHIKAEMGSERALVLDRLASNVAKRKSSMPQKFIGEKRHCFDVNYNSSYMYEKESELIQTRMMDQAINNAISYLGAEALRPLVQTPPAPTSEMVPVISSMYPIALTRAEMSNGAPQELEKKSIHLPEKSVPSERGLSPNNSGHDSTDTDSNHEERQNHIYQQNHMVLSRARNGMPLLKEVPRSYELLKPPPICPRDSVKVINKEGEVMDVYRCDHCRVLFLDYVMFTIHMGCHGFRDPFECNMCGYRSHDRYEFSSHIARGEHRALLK
T5 sequence (Q96SW2 whole entry): as the sequence (Q96SW2 whole entry) above
T5 sequence (Q16531 whole entry partner): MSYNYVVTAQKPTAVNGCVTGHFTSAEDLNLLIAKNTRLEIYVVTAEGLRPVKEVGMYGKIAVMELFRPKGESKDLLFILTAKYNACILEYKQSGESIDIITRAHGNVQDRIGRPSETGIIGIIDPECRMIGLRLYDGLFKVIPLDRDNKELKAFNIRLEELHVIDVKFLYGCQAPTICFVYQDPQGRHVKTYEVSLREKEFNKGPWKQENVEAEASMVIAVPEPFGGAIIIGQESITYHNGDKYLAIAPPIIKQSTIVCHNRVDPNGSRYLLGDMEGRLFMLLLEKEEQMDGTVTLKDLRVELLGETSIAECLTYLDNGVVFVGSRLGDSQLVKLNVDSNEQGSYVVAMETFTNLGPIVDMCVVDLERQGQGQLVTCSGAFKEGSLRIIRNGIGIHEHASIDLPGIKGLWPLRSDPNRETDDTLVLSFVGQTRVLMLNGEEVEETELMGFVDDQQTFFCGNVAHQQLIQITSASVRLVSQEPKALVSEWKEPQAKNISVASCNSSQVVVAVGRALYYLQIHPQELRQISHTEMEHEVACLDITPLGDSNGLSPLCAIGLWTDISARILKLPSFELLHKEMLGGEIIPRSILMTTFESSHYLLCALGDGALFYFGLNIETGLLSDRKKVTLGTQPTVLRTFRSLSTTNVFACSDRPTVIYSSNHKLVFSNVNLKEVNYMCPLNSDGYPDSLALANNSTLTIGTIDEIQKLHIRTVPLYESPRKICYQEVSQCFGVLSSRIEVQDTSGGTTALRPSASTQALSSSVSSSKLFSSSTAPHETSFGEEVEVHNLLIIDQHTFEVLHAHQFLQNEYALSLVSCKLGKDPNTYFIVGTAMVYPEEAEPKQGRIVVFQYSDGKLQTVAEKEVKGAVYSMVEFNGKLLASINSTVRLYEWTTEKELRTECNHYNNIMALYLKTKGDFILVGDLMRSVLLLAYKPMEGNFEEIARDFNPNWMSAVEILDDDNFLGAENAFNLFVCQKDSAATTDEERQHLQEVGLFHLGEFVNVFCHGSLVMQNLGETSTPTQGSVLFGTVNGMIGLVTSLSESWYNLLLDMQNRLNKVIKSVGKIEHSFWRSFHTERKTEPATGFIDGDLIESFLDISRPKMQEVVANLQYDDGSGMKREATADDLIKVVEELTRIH
T1 sequence (P48729 whole entry): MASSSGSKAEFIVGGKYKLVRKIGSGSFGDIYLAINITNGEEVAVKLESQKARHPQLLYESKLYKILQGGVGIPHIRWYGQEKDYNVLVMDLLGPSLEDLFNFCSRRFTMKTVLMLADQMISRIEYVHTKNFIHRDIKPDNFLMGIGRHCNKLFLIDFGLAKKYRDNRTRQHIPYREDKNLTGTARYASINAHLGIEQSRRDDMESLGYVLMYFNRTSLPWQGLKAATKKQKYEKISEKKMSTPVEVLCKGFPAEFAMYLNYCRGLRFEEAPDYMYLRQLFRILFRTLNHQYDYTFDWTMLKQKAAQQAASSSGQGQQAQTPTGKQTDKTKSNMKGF
T1 sequence (Q96SW2 whole entry): as the sequence (Q96SW2 whole entry) above
T1 sequence (Q16531 whole entry partner): as the sequence (Q16531 whole entry partner) above
T3 sequence (P30291 whole entry): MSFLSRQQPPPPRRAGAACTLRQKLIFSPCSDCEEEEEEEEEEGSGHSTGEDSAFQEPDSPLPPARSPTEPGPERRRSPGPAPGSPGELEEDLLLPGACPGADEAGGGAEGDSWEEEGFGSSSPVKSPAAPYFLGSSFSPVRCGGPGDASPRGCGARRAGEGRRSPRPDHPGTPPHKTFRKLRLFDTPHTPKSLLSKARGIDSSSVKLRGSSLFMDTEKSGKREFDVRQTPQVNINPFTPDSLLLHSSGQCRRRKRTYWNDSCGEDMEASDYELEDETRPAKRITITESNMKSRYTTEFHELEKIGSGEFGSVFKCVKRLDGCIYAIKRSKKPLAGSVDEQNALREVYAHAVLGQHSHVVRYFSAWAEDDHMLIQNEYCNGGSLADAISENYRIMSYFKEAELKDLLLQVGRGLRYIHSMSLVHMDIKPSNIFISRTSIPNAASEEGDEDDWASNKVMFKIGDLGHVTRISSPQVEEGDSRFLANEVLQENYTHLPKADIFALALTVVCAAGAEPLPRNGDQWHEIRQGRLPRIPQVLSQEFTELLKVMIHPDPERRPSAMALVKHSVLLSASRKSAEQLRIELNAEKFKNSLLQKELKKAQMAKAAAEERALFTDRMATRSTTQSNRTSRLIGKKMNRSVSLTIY
T3 sequence (Q96SW2 whole entry): as the sequence (Q96SW2 whole entry) above
T3 sequence (Q16531 whole entry partner): as the sequence (Q16531 whole entry partner) above
T4 sequence (Q13422 whole entry): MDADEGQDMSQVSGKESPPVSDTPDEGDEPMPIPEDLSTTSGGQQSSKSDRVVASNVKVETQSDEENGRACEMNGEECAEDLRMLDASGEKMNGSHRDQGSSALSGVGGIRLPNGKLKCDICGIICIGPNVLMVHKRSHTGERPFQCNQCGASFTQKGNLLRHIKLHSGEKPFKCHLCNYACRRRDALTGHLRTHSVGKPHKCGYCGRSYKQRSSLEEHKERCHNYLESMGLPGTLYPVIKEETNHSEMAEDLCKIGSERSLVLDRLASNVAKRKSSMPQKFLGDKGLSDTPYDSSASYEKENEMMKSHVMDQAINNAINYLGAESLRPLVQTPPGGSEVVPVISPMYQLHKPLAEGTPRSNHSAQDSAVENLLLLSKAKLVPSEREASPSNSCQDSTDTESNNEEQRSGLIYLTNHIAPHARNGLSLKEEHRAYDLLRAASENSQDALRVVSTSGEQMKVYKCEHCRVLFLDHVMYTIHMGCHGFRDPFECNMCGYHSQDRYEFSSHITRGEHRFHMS
T4 sequence (Q96SW2 whole entry): as the sequence (Q96SW2 whole entry) above
T4 sequence (Q16531 whole entry partner): as the sequence (Q16531 whole entry partner) above
T2 sequence (Q9UKS7 whole entry): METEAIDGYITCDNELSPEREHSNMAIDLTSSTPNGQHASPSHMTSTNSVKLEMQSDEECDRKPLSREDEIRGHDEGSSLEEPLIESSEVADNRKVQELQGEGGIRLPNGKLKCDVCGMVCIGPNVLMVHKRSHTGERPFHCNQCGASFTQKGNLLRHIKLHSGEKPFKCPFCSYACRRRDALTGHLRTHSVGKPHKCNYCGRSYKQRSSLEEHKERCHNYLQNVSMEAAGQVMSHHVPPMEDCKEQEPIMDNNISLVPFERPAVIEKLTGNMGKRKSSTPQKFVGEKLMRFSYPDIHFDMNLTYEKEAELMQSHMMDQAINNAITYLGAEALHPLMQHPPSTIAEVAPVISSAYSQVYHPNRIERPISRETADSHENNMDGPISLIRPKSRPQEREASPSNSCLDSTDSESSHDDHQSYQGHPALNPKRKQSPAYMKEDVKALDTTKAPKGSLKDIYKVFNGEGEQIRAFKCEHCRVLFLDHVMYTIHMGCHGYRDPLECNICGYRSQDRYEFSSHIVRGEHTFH
T2 sequence (Q96SW2 whole entry): as the sequence (Q96SW2 whole entry) above
T2 sequence (Q16531 whole entry partner): as the sequence (Q16531 whole entry partner) above

SMILES | GSPT1 substrate protein remaining % (GSPT1; [2]) | CK1α substrate protein remaining % (CK1α; [2]) | IKZF2 substrate protein remaining % (IKZF2; [2]) | Wee1 substrate protein remaining % (WEE1; [2]) | IKZF 1 substrate protein remaining % (IKZF1; [2]) | IKZF3 substrate protein remaining % (IKZF3; [2]) | inhibition at 0.5 µM [1] [%] | inhibition at 2 µM [1] [%] | GSPT1 substrate protein remaining % (GSPT1; [3]) | CK1α substrate protein remaining % (CK1α; [3]) | IKZF2 substrate protein remaining % (IKZF2; [3]) | Wee1 substrate protein remaining % (WEE1; [3]) | IKZF 1 substrate protein remaining % (IKZF1; [3]) | IKZF3 substrate protein remaining % (IKZF3; [3]) | IC50 [1] [nM]
O=C1CCC(N2Cc3c(CN4CCN(c5cccc(Cl)n5)CC4)cccc3C2=S)C(=O)N1 (stereo not shown) [GT-08693, 3-(4-((4-(6-chloropyridin-2-yl)piperazin-1-yl)methyl)-1-thioxoisoindolin-2-yl)piperidine-2,6-dione] | B (80%< substrate protein remaining %≤ 100%) | B (80%< substrate protein remaining %≤ 100%) | B (80%< substrate protein remaining %≤ 100%) | A (0% ≤ substrate protein remaining % ≤ 80%) | B (80%< substrate protein remaining %≤ 100%) | B (80%< substrate protein remaining %≤ 100%) | 60 to 80 | 80 to 100 | – | – | – | – | – | – | –
O=C1CCC(N2Cc3cc(CN4CCN(c5ccc(Cl)nc5)CC4)ccc3C2=S)C(=O)N1 (stereo not shown) [GT-09230, 3-(5-((4-(6-chloropyridin-3-yl)piperazin-1-yl)methyl)-1-thioxoisoindolin-2-yl)piperidine-2,6-dione] | A (0% ≤ substrate protein remaining % ≤ 80%) | A (0% ≤ substrate protein remaining % ≤ 80%) | B (80%< substrate protein remaining %≤ 100%) | B (80%< substrate protein remaining %≤ 100%) | B (80%< substrate protein remaining %≤ 100%) | B (80%< substrate protein remaining %≤ 100%) | 60 to 80 | 80 to 100 | – | – | – | – | – | – | –
O=C1CCC(N2Cc3c(CN4CC=C(c5ccco5)CC4)cccc3C2=S)C(=O)N1 (stereo not shown) [GT-08311, 3-(4-((4-(furan-2-yl)-3,6-dihydropyridin-1 (2H)-yl)methyl)-1-thioxoisoindolin-2-yl)piperidine-2,6-dione] | – | – | – | – | – | – | 60 to 80 | 80 to 100 | B (80%< substrate protein remaining %≤ 100%) | B (80%< substrate protein remaining %≤ 100%) | B (80%< substrate protein remaining %≤ 100%) | A (0% ≤ substrate protein remaining % ≤ 80%) | B (80%< substrate protein remaining %≤ 100%) | B (80%< substrate protein remaining %≤ 100%) | –
Cc1sc2ncnc(N3CCCN(Cc4cccc5c4CN(C4CCC(=O)NC4=O)C5=S)CC3)c2c1C (stereo not shown) [GT-08917, 3-(4-((4-(5,6-dimethylthieno[2,3-d]pyrimidin-4-yl)-1,4-diazepan-1-yl)methyl)-1-thioxoisoindolin-2-yl)piperidine-2,6-dione] | – | – | – | – | – | – | 53 to 60 | 80 to 100 | A (0% ≤ substrate protein remaining % ≤ 80%) | B (80%< substrate protein remaining %≤ 100%) | B (80%< substrate protein remaining %≤ 100%) | A (0% ≤ substrate protein remaining % ≤ 80%) | B (80%< substrate protein remaining %≤ 100%) | B (80%< substrate protein remaining %≤ 100%) | –
O=C1CCC(N2Cc3c(CN4CCN(c5ccc(F)cn5)CC4)cccc3C2=S)C(=O)N1 (stereo not shown) [GT-08699, 3-(4-((4-(5-fluoropyridin-2-yl)piperazin-1-yl)methyl)-1-thioxoisoindolin-2-yl)piperidine-2,6-dione] | B (80%< substrate protein remaining %≤ 100%) | B (80%< substrate protein remaining %≤ 100%) | B (80%< substrate protein remaining %≤ 100%) | A (0% ≤ substrate protein remaining % ≤ 80%) | B (80%< substrate protein remaining %≤ 100%) | B (80%< substrate protein remaining %≤ 100%) | 53 to 60 | 80 to 100 | – | – | – | – | – | – | –
O=C1CCC(N2Cc3cc(CN4CCN(c5c(F)cccc5F)CC4)ccc3C2=S)C(=O)N1 (stereo not shown) [GT-08626, 3-(5-((4-(2,6-difluorophenyl)piperazin-1-yl)methyl)-1-thioxoisoindolin-2-yl)piperidine-2,6-dione] | A (0% ≤ substrate protein remaining % ≤ 80%) | B (80%< substrate protein remaining %≤ 100%) | B (80%< substrate protein remaining %≤ 100%) | B (80%< substrate protein remaining %≤ 100%) | B (80%< substrate protein remaining %≤ 100%) | B (80%< substrate protein remaining %≤ 100%) | 60 to 80 | 80 to 100 | – | – | – | – | – | – | –
Cc1nc(C2=CCN(Cc3cccc4c3CN(C3CCC(=O)NC3=O)C4=S)CC2)c2c3c(sc2n1)CCCC3 (stereo not shown) [GT-08961, 3-(4-((4-(2-methyl-5,6,7,8-tetrahydrobenzo[4,5]thieno[2,3-d]pyrimidin-4-yl)-3,6-dihydropyridin-1(2H)-yl)methyl)-1-thioxoisoindolin-2-yl)piperidine-2,6-dione] | – | – | – | – | – | – | 40 to 53 | 80 to 100 | B (80%< substrate protein remaining %≤ 100%) | B (80%< substrate protein remaining %≤ 100%) | B (80%< substrate protein remaining %≤ 100%) | A (0% ≤ substrate protein remaining % ≤ 80%) | B (80%< substrate protein remaining %≤ 100%) | B (80%< substrate protein remaining %≤ 100%) | –
O=C1CCC(N2Cc3c(CN4CC5CCC(C4)N5c4cccc(Cl)c4Cl)cccc3C2=S)C(=O)N1 (stereo not shown) [GT-08470, 3-(4-((8-(2,3-dichlorophenyl)-3,8-diazabicyclo[3.2.1]octan-3-yl)methyl)-1-thioxoisoindolin-2-yl)piperidine-2,6-dione] | A (0% ≤ substrate protein remaining % ≤ 80%) | B (80%< substrate protein remaining %≤ 100%) | B (80%< substrate protein remaining %≤ 100%) | B (80%< substrate protein remaining %≤ 100%) | B (80%< substrate protein remaining %≤ 100%) | B (80%< substrate protein remaining %≤ 100%) | 20 to 30 | 53 to 60 | – | – | – | – | – | – | –
Cc1ccc(N2CCN(Cc3ccc4c(c3)CN(C3CCC(=O)NC3=O)C4=S)CC2)s1 (stereo not shown) [GT-05110, 3-(5-((4-(5-methylthiophen-2-yl)piperazin-1-yl)methyl)-1-thioxoisoindolin-2-yl)piperidine-2,6-dione] | A (0% ≤ substrate protein remaining % ≤ 80%) | B (80%< substrate protein remaining %≤ 100%) | B (80%< substrate protein remaining %≤ 100%) | B (80%< substrate protein remaining %≤ 100%) | B (80%< substrate protein remaining %≤ 100%) | B (80%< substrate protein remaining %≤ 100%) | – | – | – | – | – | – | – | – | 100 to 500
Cc1nc(C2CCN(Cc3ccc4c(c3)CN(C3CCC(=O)NC3=O)C4=S)CC2)c2c3c(sc2n1)CCC3 (stereo not shown) [GT-09312, 3-(5-((4-(2-methyl-6,7-dihydro-5H-cyclopenta[4,5]thieno[2,3-d]pyrimidin-4-yl)piperidin-1-yl)methyl)-1-thioxoisoindolin-2-yl)piperidine-2,6-dione] | – | – | – | – | – | – | 60 to 80 | 80 to 100 | A (0% ≤ substrate protein remaining % ≤ 80%) | B (80%< substrate protein remaining %≤ 100%) | B (80%< substrate protein remaining %≤ 100%) | B (80%< substrate protein remaining %≤ 100%) | B (80%< substrate protein remaining %≤ 100%) | A (0% ≤ substrate protein remaining % ≤ 80%) | –
O=C1CCC(N2Cc3ccc(CN4CCC(c5noc6cc(F)ccc56)CC4)cc3C2=S)C(=O)N1 (stereo not shown) [GT-05031, 3-(6-((4-(6-fluorobenzo[d]isoxazol-3-yl)piperidin-1-yl)methyl)-1-thioxoisoindolin-2-yl)piperidine-2,6-dione] | – | – | – | – | – | – | – | – | A (0% ≤ substrate protein remaining % ≤ 80%) | B (80%< substrate protein remaining %≤ 100%) | B (80%< substrate protein remaining %≤ 100%) | B (80%< substrate protein remaining %≤ 100%) | B (80%< substrate protein remaining %≤ 100%) | A (0% ≤ substrate protein remaining % ≤ 80%) | 100 to 500
O=C1CCC(N2Cc3c(CN4CC=C(c5ccnc(Cl)c5Cl)CC4)cccc3C2=S)C(=O)N1 (stereo not shown) [GT-08462, 3-(4-((2',3'-dichloro-3,6-dihydro-[4,4'-bipyridin]-1(2H)-yl)methyl)-1-thioxoisoindolin-2-yl)piperidine-2,6-dione] | B (80%< substrate protein remaining %≤ 100%) | B (80%< substrate protein remaining %≤ 100%) | B (80%< substrate protein remaining %≤ 100%) | A (0% ≤ substrate protein remaining % ≤ 80%) | B (80%< substrate protein remaining %≤ 100%) | B (80%< substrate protein remaining %≤ 100%) | 60 to 80 | 80 to 100 | – | – | – | – | – | – | –
